Assays:
MS1 mesothelioma cells = assay: Proliferation assay (tetrazolium conversion) in MS1 cells; format: cell-based, human; conditions: three days
Description: Alimta® (MTA) was supplied by Eli Lilly (Indianapolis, Ind.). Alimta® was diluted in sterile physiological solution at a concentration of 10 mg/ml. The stock was divided into aliquots, stored at −80° C., and diluted in culture medium before each experiment. Wnt2 antibody was stored at 4° C. and used as previously described. Cell proliferation was determined by measuring metabolic activity of tetrazolium conversion (Cell Titer 96 assay, Promega, Madison, Wis.). Briefly, 5,000 cells were plated per well in a 96-well plate and culture medium containing increasing concentrations of both drugs was added. Plates were incubated at 37° C. for 72 hours in a CO2 incubator. Then a solubilization/stop solution was added and the absorbance was recorded with a […] at a wavelength of 570 nm. Each experiment was repeated at least 3 times in triplicate.
The effects of the anti-Wnt2 monoclonal antibody on cell proliferation were assessed and compared with the effects of Alimta®. Alimta® (LY231514, MTA, pemetrexed) is a novel multifunctional antifolate antimetabolite (Hanauske Lung Cancer 45 Suppl 1:S121-4 (2004)). […] Alimta® is now considered a standard in the treatment of surgically non-amenable mesothelioma. […] Three days later the cell proliferation was assessed by measuring the metabolic activity of cellular enzyme (here the tetrazolium conversion).

JNK = JNK activity; format: cell-based; conditions: inhibition of Dvl by blocking CK-2 activity
Text: Through frizzled receptor and dishevelled protein, Wnt signal activates two distinct pathways: the canonical pathway (i.e., β catenin pathway) and the JNK pathway. Dishevelled protein has three highly conserved domains, DIX, PDZ, and DEP. Among them, the DIX and PDZ domains are necessary for the canonical signaling pathway while the DEP domain is important for the activation of JNK pathway. […] Most likely, the activation of JNK after anti-Wnt antibody treatment is through Dvl.

A549, LOX and FEMX = assay: Specificity control with blocking peptide (apoptosis by flow cytometry); format: cell-based, human; conditions: 300 μg/ml for 72 hrs, alone
Text: Cells were harvested by trypsinization and processed for determination of cell surface annexin-V and propodium iodide (PI) contents, according to the manufacture's protocol (Annexin V FITC Apoptosis Detection Kit (Oncogene, Cambridge, Mass.); Apotarget (BioSource International)). With the use of Annexin-V-PI double staining regime, three populations of cells are distinguishable in two color flow cytometry: (a) non-apoptotic cells: annexin-V and PI negative; (b) early apoptotic cells with exposed phosphatidylserine but intact cell membranes bound to Annexin V-FITC but excluded propidium iodide; and (c) cells in necrotic or late apoptotic stages were labeled with both Annexin V-FITC and propidium iodide. Then stained cells were immediately analyzed by flow cytometry (FACScan; Decton Dickinson, Franklin Lake, N.J.). TUNEL staining of tumor tissue samples harvested from in vivo experiment was performed using ApopTag Peroxidase In Situ Oligo Ligation Apoptosis Detection Kit (Chemicon International, Temecula, Calif.) according to the manufacturer's protocol.
As a specificity control, induction of apoptosis was examined by using monoclonal Wnt2 antibody blocked by overnight pre-incubation with blocking peptide (30-fold over the antibody) in A549, LOX and FEMX. […] Same dose of blocking peptide (300 μg/ml for 72 hrs) alone had no effect on cell viability.

[1] = system: hepatoma cell lines HepG2 and Hep3B; assay: Cytotoxic effects in hepatoma cell lines; format: cell-based; conditions: data not shown

Nc1nc2[nH]cc(CCc3ccc(C(=O)N[C@@H](CCC(=O)O)C(=O)O)cc3)c2c(=O)[nH]1 [Alimta®, pemetrexed]
decrease in cell proliferation (MS1 mesothelioma cells; 1 μg/ml): about 41.9% | decrease in cell proliferation (MS1 mesothelioma cells; 10 μg/ml): about 42.9%

O=c1cc(-c2ccc(O)cc2)oc2cc(O)cc(O)c12 [Apigenin, reference compound]
JNK activity (JNK): increased JNK activity

blocking peptide: peptide pre-incubated with the anti-Wnt2 antibody (30-fold over the antibody) to block it (SSQRQLCHRHPDVMR; UniProt P09544 49-63, looked up, fragment) [reference compound]
cell viability (A549, LOX and FEMX): no effect

B1: anti-Wnt2 monoclonal antibody: mouse monoclonal IgG1 raised against residues 49-63 of human Wnt2; 17F7.G7 was used in the experiments described (protein)
chain: SWWYMRATGGSSRVMCDNVPGLVSSQRQLCHRHPDVMRAISQGVAEWTAECQHQFRQHRWNCNTLDRDHSLFGRVLLRSSRESAFVYAISSAGVVFAITRACSQGEVKSCSCDPKKMGSAKDSKGIFDWGGCSDNIDYGIKFARAFVDAKERKGKDARALMNLHNNRAGRKAVKRFLKQECKCHGVSGSCTLRTCWLAMADFRKTGDYLWRKYNGAIQVVMNQDGTGFTVANERFKKPTKNDLVYFENSPDYCIRDREAGSLGTAGRVCNLTSRGMDSCEVMCCGRGYDTSHVTRMTKCGCKFHWCCAVRCQDCLEALDVHTCKAPKNADWTTAT
cytotoxic effects [1]: cytotoxic effects
